According to ChEMBL document CHEMBL1142027, “In vivo incorporation of an alkyne into proteins in Escherichia coli” (Bioorg Med Chem Lett, 2005):
≈ marks a conversion by molar mass, not a printed value.

Tested on: Escherichia coli
Experiment: Inhibitory concentration of compound was determined against Escherichia coli in the absence of alkynyl amino acid 1
Assay type: functional, organism-based

- IC50: 5 µg/mL (≈ 15.5 µM)
Structure (SMILES): O=C(N[C@H](CO)[C@H](O)c1ccc([N+](=O)[O-])cc1)C(Cl)Cl [CHLORAMPHENICOL]
